US20150320782A1, “Methods, compositions and kits for treating, modulating, or preventing ocular angiogenesis or fibrosis in a subject using a galectin protein inhibitor” (TUFTS UNIVERSITY, priority 2012, published 2015)
Values joined by “and” are separate entries in the source; they are usually repeats but may differ in a detail not shown here. Equal entries are not always repeated. “Also recorded” adds a separate entry of the source.

Tests used:
[1] = tested on: endothelial cell (EC) spheroids (HUVEC); type: cell-based
Description: Methyl cellulose powder (6 g) was autoclaved with stirring using a magnetic bar in a 500 mL bottle. The powder was dissolved in 250 mL of DMEM medium at 60° C. with stirring for 30 minutes, and then 250 mL DMEM at room temperature was added and the mixture was stirred for two hours at 4° C. The resulting mixture was then aliquoted into 50 mL cylindrical tubes and centrifuged (6170 revolutions per minute) for two hours at room temperature to remove debris interfering with spheroid formation. The clear supernatant was collected from the centrifuged tubes.
Endothelial cells (EC) were cultured in containers and were detached from the container surfaces with 0.25% trypsin. The pH of the trypsinized EC cells was neutralized with DMEM. Spheroid solution was prepared in tubes by combining 3.75 mL of methylcellulose, 1.75 mL FBS, 17.5 μl pen/strep, and […] endothelial cells, and adding DMEM to bring the total volume to 17.5 mL. The spheroid solution was mixed by inverting tubes, and 150 μl aliquots were added to each well of a 96 well plate using a multichannel pippettor and wide mouth tips. Spheroids were settled and were incubated for 24 hours at 37° C. in 5% CO2.
Each 96 well plate yielded spheroids sufficient for four wells of a 24 well plate. The collagen solution was prepared using 2.3 mL (3.9 mg/mL) collagen type 1, 400 μl 10×M199 medium, 200 μl FBS, and 1.1 mL water. The collagen solution was neutralized with sodium hydroxide using a color pH indicator. The methyl cellulose solution (4.5 mL) was combined with 1.5 mL DMEM and warmed to 37° C. in a water bath. EC spheroids were collected using a wide mouth pipette and centrifuged (700 revolutions per minutes) for three minutes at room temperature.
The resulting supernatant was removed, and two mL of methyl cellulose solution were added to the pellet. Neutralized collagen solution (2 mL) was added to the mixture, and mixed using a pipette carefully to avoid bubble formation.
An aliquot (1 mL) of the mixed collagen solution was added to four wells of a 24 well plate, and the plate was incubated at 37 C 5% CO2 for 30 minutes to polymerize the collagen. […] Control collagen samples were treated with 100 μl of EBM-2 and 25 ng/mL VEGF in EBM-2.
See Meyer et al. 2003 J Biol Chem. 278(18): 16347-55. Representative images of the incubated samples were obtained and the cumulative length in arbitrary units of the endothelial cell sprouts was determined by ImageJ processing and analysis procedures. The data was analyzed by Student's t-test (Table 2).

mouse corneas [2] = test: Silver nitrate cautery-induced corneal neovascularization, TD139; type: in vivo; settings: TD139 325 ng sub-conjunctival every other day, 50 μM eye drops daily; day five after cautery; control about 40%
Source text: FIG. 11A is a drawing of an experimental regimen for drug administration in murine subjects strain C57B/6L. […] Silver nitrate was applied on day zero to cauterize the eyes of the subjects. Mice were sacrificed on day five, and flat mounts of corneas were stained with anti-CD31 to visualize blood vessels. Data shown in FIG. 11 B-C were from subjects treated as described in FIG. 11A.
Neovascularization in the eye was induced in mouse corneas by cauterization using silver nitrate. […] Control subjects were sub-conjunctivally injected with vehicle only (PBS containing 0.5% DMSO only).
After five days of either sub-conjunctival injection treatment or eye drop treatment, subjects were sacrificed, and flat mounts of corneas were excised, photographed, and stained with anti-CD31 to visualize blood vessels (FIG. 11B, magnification is ×100). The density of blood vessels covering the whole cornea was quantified by ImageJ and was analyzed with Student's t test (FIG. 11C).

recombinant galectin-1 = recombinant galectin-1 (Homo sapiens, UniProt P09382); test: Microtiter plate binding assay with galectin receptor-HRP conjugate, galectin-1; settings: plate coated with recombinant galectin-1
Sequence of recombinant galectin-1 (P09382 whole entry): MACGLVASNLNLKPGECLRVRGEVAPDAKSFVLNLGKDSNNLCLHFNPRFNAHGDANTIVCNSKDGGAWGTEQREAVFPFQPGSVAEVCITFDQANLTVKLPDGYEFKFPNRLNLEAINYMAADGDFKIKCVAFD

recombinant galectin-3 = recombinant galectin-3 (Homo sapiens, UniProt P17931); test: Microtiter plate binding assay with galectin receptor-HRP conjugate, galectin-3; settings: plate coated with recombinant galectin-3
Sequence of recombinant galectin-3 (P17931 whole entry): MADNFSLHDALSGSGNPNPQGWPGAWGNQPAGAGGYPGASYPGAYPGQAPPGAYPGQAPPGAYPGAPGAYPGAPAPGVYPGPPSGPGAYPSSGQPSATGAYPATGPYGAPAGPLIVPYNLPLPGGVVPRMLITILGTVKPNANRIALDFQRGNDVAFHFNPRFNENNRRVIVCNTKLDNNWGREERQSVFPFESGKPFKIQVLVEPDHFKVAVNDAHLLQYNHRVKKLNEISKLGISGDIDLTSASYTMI
Description: Microtiter plate wells were coated with recombinant galectin-1 or galectin-3 (10 μg/ml, 50 μl/well), and then washed with wash solutions containing PBS and detergent. The wells were blocked with BSA, and washed with wash solution/buffer. […] Control wells included PBS only. An amount of galectin receptor-HRP conjugate (100 μL/well, 1 mg/mL) specific for either galectin-1 or galectin-3 was added to the respective wells. The wells were incubated for one hour and then washed with buffer at room temperature. The horse-radish peroxidase enzyme reaction was performed using a TMB-peroxidase substrate kit (BioRad Inc.). The reaction was stopped after one hour by addition of 1N sulfuric acid (100 μL/well) and the optical density was read at 450 nm.

HUVEC spheroids = test: VEGF-A-induced HUVEC spheroid sprouting in type I collagen gels; type: cell-based, human; settings: VEGF-A 100 ng/ml; TD139 0.1, 1, 5 and 10 μM; 24 hours
Description: HUVEC spheroids were prepared and seeded into type I collagen gels. […] Control collagen samples were treated with 100 μl of EBM-2 and 25 ng/mL VEGF in EBM-2. […] After a 24 hour incubation, spheroids were stained with calcein AM dye and photographed by a fluorescent microscope. Cumulative sprout lengths for HUVEC in gels were quantified by ImageJ.
HUVEC spheroids were prepared as described in examples herein, and the spheroids were seeded into type I collagen gels. […] Control spheroids were treated with neither VEGF-A nor TD139. After 24 hours of treatment, spheroids were stained with calcein AM, a cell-permeant dye that indicates cell viability in eukaryotic cells (Invitrogen Inc.), and the spheroids were photographed by a fluorescent microscope. Cumulative sprout lengths were quantified by ImageJ.

HUVEC [3] = test: VEGF-A-induced endothelial cell migration (chemotaxis chamber); type: cell-based, human; settings: three hours
Description: FIG. 13B is a bar graph showing migration distance (migration index, ordinate) of HUVEC cells treated with (abscissa) […] as in FIG. 13A. HUVECs were serum starved overnight, detached with proteolytic and collagenolytic enzyme product Accutase™ (Millipore Inc.), resuspended in 1% FBS/M199 and then added to the upper chamber of a migration testing system. […] After three hours of incubation, HUVECs that migrated to lower side of the membrane were counted.
HUVEC were incubated without serum overnight, detached with Accutase, re-suspended in 1% FBS/M199 and added in an upper chamber separated from a bottom chamber by a membrane. […] Control HUVEC were treated with neither VEGF-A nor TD139.
Data were plotted as mean±SEM and analyzed with one-way ANOVA. *P<0.05 vs control; ***P<0.001 vs control; ^###P<0.001 vs VEGF-A.

HUVEC [4] = test: HUVEC viability by calcein AM and WST-1; type: cell-based, human; settings: three hours treatment; TD139 5 μM, Triton X-100 0.1%
Description: The cell viabilities of the treated HUVEC and control HUVEC were determined with each of calcein AM and WST-1, two systems used to determine cell viability. Calcein AM was added to a group of treated HUVEC, which were incubated for 30 minutes (FIG. 14A). Another group of treated HUVEC were incubated for two hours with WST-1, a tetrazolium salt used for determining cell proliferation and is an indicator or cell viability (FIG. 14B). Data are plotted with mean±SEM and analyzed with one-way ANOVA. ***P<0.001 vs control. Fluorescence emission was detected by a spectrophotometer for each treated group contacted with either calcein AM or WST-1.

VEGFR2 = VEGFR2 expression in HUVEC by western blot; type: cell-based, human; settings: 10 μM TD139, six hours
Description: Cell lysates were analyzed by electrophoresis in 4-20% SDS-PAGE gels. The gels were transferred to western blot membranes, and were probed with anti-VEGFR-2 antibody (FIG. 15 top row) or β-actin antibody (FIG. 15 bottom row).
Control HUVEC were not treated with TD139. Cell lysates were analyzed using gel electrophoresis (4-20% SDS-PAGE gels), and the membrane blots were probed with either anti-VEGFR-2 antibodies or β-actin antibodies.

mouse corneas [5] = test: Alkali (sodium hydroxide) model of corneal fibrosis; settings: vs PBS
Description: C57BJ/6 mice were anesthetized by intraperiteoneal injection of a mixture of ketamine and xylazine. Corneas of the subjects were topically anesthetized by applying an eye drop of proparacain. 1.5 μl drop of 0.15M sodium hydroxide was applied for one minute to the central cornea of each subject. Each eye was immediately washed extensively in PBS, and corneal epithelium and limbal epithelium were gently removed with an ALGEBRUSH™ optical device (Storz Ophthalmic Instruments, St. Louis, Mo.). Each cornea was covered with an antibiotic ointment. […] Control subjects were injected subconjunctivally with control vehicle PBS. Corneas were visualized and analyzed for opacity, and protein markers for fibrosis were quantified as described below.
Mice were sacrificed at day 14 post surgery using a mixture of ketamine and xylazine. Mouse corneas were dissected and lysed in ice-cold lysis buffer containing 5 mM NaF, 1 mM PMSF, 1 mM DTT, 20 mM HEPES, 1 mM EDTA, 400 mM NaCl, 1 mM EGTA, 0.1% NP-40, and a protease inhibitor cocktail product (Roche). Aliquots of corneal protein (20 μg) were loaded to each lane of a gel and transferred onto a nitrocellulose membrane. Blots were probed overnight at 4° C. with either a rabbit antibody specific for α-smooth muscle actin (10,000 dilution; Abcam Inc., Cambridge, England), or with a control antibody specific for β-actin. The blots were extensively washed and were incubated with goat anti rabbit IRDye 800CW antibody (1:10,000 dilution; LI-Cor Biosciences; Lincoln Nebr.). Membranes were scanned and quantified using an Odessey imaging system (Li-Cor Biosciences).
C57BJ/6 mice were anesthetized by intraperiteoneal injection of ketamine and xylazine mixture. […]
Subjects were sacrificed on day fourteen after alkalisurgery using a mixture of ketamine and xylazine. […] The membranes were washed and incubated with goat anti rabbit IRDye 800CW antibody (1:10,000; Li-Cor Inc.), the membranes were scanned and quantified with Odessey imaging system (Li-Cor Inc.).
SMA (smooth muscle actin) is a marker of corneal fibrosis. […] Opacity of the eye was scored on day 7 and day 14. […]

mouse retinas = test: Alkali (sodium hydroxide) model, retinal gliosis (GFAP western blot); settings: 10 μl of 50 mM TD139 subconjunctival daily for 14 days; vs PBS
Description: Corneas of murine subjects were contacted with sodium hydroxide. […] Control subjects were injected subconjunctively with PBS control vehicle only. Subjects were sacrificed by ketamine and xylazine on day 14 post surgery. […] Aliquots of retinal protein (30 μg) from lysates, or a control β-actin material were loaded to gels and transferred onto nitrocellulose membranes. Blots were probed overnight at 4° C. with rabbit anti mouse antibody specific for glial fibrillary acidic protein (GFAP; 50,000 dilution; Abcam Inc.; FIG. 18 top row), or with a control antibody specific for β-actin. […] Control blots were probed with rabbit antibody specific for β-actin (FIG. 18 bottom row). The probes were washed and were incubated with goat anti rabbit IRDye 800CW antibody (1:10,000 dilution; LI-Cor Biosciences). Membranes were scanned and quantified using an Odessey imaging system (Li-Cor Biosciences).
C57BJ/6 mice were anesthetized by intraperiteoneal injection of ketamine and xylazine mixture. Corneas were topically anesthetized by application of proparacain eye drop. […]
Subjects were sacrificed on day fourteen after alkalisurgery using a mixture of ketamine and xylazine. […] The membranes were washed and incubated with goat anti rabbit IRDye 800CW antibody (1:10,000; Li-Cor Inc.), the membranes were scanned and quantified with Odessey imaging system (Li-Cor Inc.). […]

[6] = tested on: TM cells on galectin-8 coated wells; settings: cited from earlier work
galectin-1 / VEGFR-2 = molecular target: T1, galectin-1 / VEGFR-2 (Homo sapiens, UniProt P09382); test: HUVEC lysate VEGFR-2 pull-down on galectin-1 agarose beads; type: binding; settings: 0.1 M saccharide
T1 construct: host or cells: VEGFR-2: endogenous, HUVEC lysate
T1 sequence (P09382 whole entry): as the sequence (P09382 whole entry) above
Source text: FIG. 12 is a photomicrograph of a western blot showing that galectin-1 and galectin-3 interacted with VEGFR-2. […] Control samples contained only HUVEC lysates or beads. Bound material was eluted with Laemmli sample buffer, added to 4-20% SDS-PAGE gels, and electrophoresed. Gels were transferred onto membrane blots, which was then probed with anti-VEGFR-2 antibody. VEGFR-2 antibody was observed bound to the HUVEC lysate control and not to the bead only control. […] Thus, the interaction between VEGFR-2 and galectin-1 and galectin-3 was observed herein to be carbohydrate-dependent.
Control HUVEC lysates were incubated with galectin-1 agarose beads or galectin-3 agarose beads only. The beads were rinsed to remove unbound material.
HUVEC lysate material bound to the beads was eluted with the Laemmli sample buffer and was analyzed using gel electrophoresis (4-20% SDS-PAGE gels). Following blocking, membrane blots were probed using anti-VEGFR-2 antibody (FIG. 12). […] Further, the VEGFR2 HUVEC lysate binding to the beads was […] for beads treated with sucrose, a noncompeting saccharide.

galectin-3 / VEGFR-2 = molecular target: T2, galectin-3 / VEGFR-2 (Homo sapiens, UniProt P17931); test: HUVEC lysate VEGFR-2 pull-down on galectin-3 agarose beads; type: binding; settings: 0.1 M saccharide
T2 construct: host or cells: VEGFR-2: endogenous, HUVEC lysate
T2 sequence (P17931 whole entry): as the sequence (P17931 whole entry) above

OC[C@H]1O[C@@H](S[C@@H]2O[C@H](CO)[C@H](O)[C@H](n3cc(-c4cccc(F)c4)nn3)[C@H]2O)[C@H](O)[C@@H](n2cc(-c3cccc(F)c3)nn2)[C@H]1O [TD139, bis-{3-deoxy-3-[4-(3-fluorophenyl)-1H-1,2,3-triazol-1-yl]-β-D-galactopyranosyl}sulfane]
Decrease of VEGF-mediated EC sprouting ([1]; 10 μM TD139, compared to VEGF alone): about one-third | Reduction of the extent of VEGF-mediated sprouting ([1]; 50 μM TD139): about two-thirds | Density of blood vessels covering the cornea (percent area) (mouse corneas [2]): 28% | Binding to galectin-1 (recombinant galectin-1): specifically bound | Binding to galectin-3 (recombinant galectin-3): specifically bound | VEGF-A-induced sprouting (cumulative sprout length) (HUVEC spheroids): significantly inhibited | VEGF-A-induced chemotaxis and migration (HUVEC [3]; TD139 1 to 5000 nM, dose-dependent): significantly abrogated | Concentration as low as which VEGF-A-induced chemotaxis was significantly abrogated (HUVEC [3]; VEGF-A 100 ng/mL): 1 nM | Calcein AM fluorescence (cell viability) (HUVEC [4]): comparable calcein AM fluorescence | WST-1 signal (cell viability) (HUVEC [4]): comparable cell viability | Total protein expression of VEGFR2 (VEGFR2): little or no effect | Corneal opacity (score 0-4) (mouse corneas [5]; 10 μl of 50 mM TD139 subconjunctival daily for 14 days after alkali): area of opacity less than about the site of the pupil; also recorded: reduced corneal opacity | Reduction of α-SMA (smooth muscle actin) expression in corneal lysates (mouse corneas [5]; 10 μl of 50 mM TD139 subconjunctival daily for 14 days): 30% | GFAP expression in retinal lysates (mouse retinas): reduced expression of GFAP

CC(=O)N[C@H]1[C@H]([C@H](O)[C@H](O)CO)O[C@](OC[C@H]2O[C@@H](O[C@H]3[C@H](O)[C@@H](NC(C)=O)C(O)O[C@@H]3CO)[C@H](O)[C@@H](O)[C@H]2O)(C(=O)O)C[C@@H]1O (stereo partly shown) [NeuAca2-6Galβ1-4GlcNAc]
Spreading of TM cells on galectin-8 protein coated wells [6]: no effect

OC[C@H]1O[C@@H](O[C@H]2[C@H](O)[C@@H](O)C(O)O[C@@H]2CO)[C@H](O)[C@@H](O)[C@H]1O (stereo partly shown) [lactose]
Inhibition of VEGFR-2 binding to galectin-1 beads (galectin-1 / VEGFR-2): inhibited | Adhesion of TM cells to galectin-8 coated wells [6]: inhibited or prevented

OC[C@H]1O[C@@](CO)(O[C@H]2O[C@H](CO)[C@@H](O)[C@H](O)[C@H]2O)[C@@H](O)[C@@H]1O [sucrose]
Inhibition of VEGFR-2 binding to galectin-1 beads (galectin-1 / VEGFR-2): not inhibited | Inhibition of VEGFR-2 binding to galectin-3 beads (galectin-3 / VEGFR-2): not inhibited | Adhesion of TM cells to galectin-8 coated wells [6]: not inhibited

CC(=O)N[C@H]1[C@H]([C@H](O)[C@H](O)CO)O[C@@](O[C@H]2[C@@H](O)[C@@H](CO)O[C@@H](O[C@H]3[C@H](O)[C@@H](NC(C)=O)C(O)O[C@@H]3CO)[C@@H]2O)(C(=O)O)C[C@@H]1O (stereo partly shown) [NeuAca2-3Galβ1-4GlcNAc]
Spreading of TM cells on galectin-8 protein coated wells [6]: inhibited

Triton™ X-100
Calcein AM fluorescence (cell viability) (HUVEC [4]): reduced fluorescence | WST-1 signal (cell viability) (HUVEC [4]): reduced WST-1 fluorescence

VEGF
Fold change in capillary sprouting of EC over control cells not contracted with VEGF and inhibitor ([1]; VEGF 25 ng/mL only): 650 fold and 921 fold and 604 fold and 800 fold | Formation of endothelial cell sprouts compared to medium only ([1]; VEGF 25 ng/mL only): four-fold
